Measured values reported in US20260000642A1 (Tay Therapeutics Limited, priority 2022, published 2026).
Values joined by “and” are separate entries in the source; they are usually repeats but may differ in a detail not shown here. Equal values may be shown once.

Tests used:
[1] = tested on: rat anti-collagen IgG1 antibodies; assay: CIA model: rat anti-collagen IgG1 antibodies in serum at day 21; format: in vivo, Lewis rat; details: for levels of rat anti-collagen IgG1 antibodies relative to CIA without treatment: day 21
Description: Blood was additionally collected from groups 1-7 via cardiac puncture following euthanasia on Day 21. Blood from cardiac puncture was placed in a 1.5 mL centrifuge tube without an anticoagulant and centrifuged at 8000 rcf for 15 minutes. Serum was divided into two separate tubes and stored at −75±15° C. One tube was used to analyze IgG1, and the other tube was reserved for additional analyses.
All data measured and recorded was analyzed using SPSS 16.0 software. Groups were compared using one-way ANOVA and significance was set at p<0.05.

[2] = Pharmacokinetics of Example 101 in Lewis rats (oral, CIA study); format: in vivo, Lewis rat
Description: Blood samples were collected from animals in group 8 on Day 0, and blood samples were collected from group 9 on Day 20. Blood samples from group 8 and group 9 were collected at 0.25, 0.5, 1, 2, 4, 8, 10, 12, 13, and 24-hours following morning administration of their first dose of the compound. The second dose of the compound was administered after the 8-hour collection timepoint. All blood samples were collected at the eye socket and put into tubes containing EDTA-K2 as an anticoagulant and centrifuged at 4° C. at 4,000×g for 5 minutes. Plasma was transferred to a separate tube and stored at −75±15° C. for PK analysis. Pharmacokinetic analyses for Example 101 in Lewis rats were performed as described in Experimental Method B.

[3] = Plasma stability assay, rat plasma; format: in vitro ADME; details: 37° C., Method 1 (5 μM)
Summary of the method: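 Compound incubated in plasma at 37° C, either at 5 μM (0.5% DMSO) sampled at 0, 15, 30, 60, 120 min (Method 1) or at 10 μM (2% DMSO) sampled at 0, 15, 30, 60, 90, 120 min (Method 2). Quenched with cold acetonitrile plus internal standard; LC-MS/MS, % remaining relative to 0 min.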

BRD4 BD2 = target: T1, BRD4 BD2 (Homo sapiens, UniProt O60885); assay: NanoBRET bromodomain assay, NanoLuc-BRD4-BD2 fusion vector in HEK293 cells; format: cell-based
T1 construct: HEK293 cells were transfected using NanoLuc-BRD4-BD1 or NanoLuc-BRD4-BD2 fusion vectors; host or cells: HEK293
Source text: Bromodomain Assay Procedure

[4] = Beagle dog PK study 2 (IV, HPβCD based formulation); format: in vivo
Description: The purpose of this study was to examine the pharmacokinetics of Example 101 in beagle dogs. […] An oral PK study was also undertaken in Lewis rats—see Experimental Method C.
Body weight was recoded prior to dosing, and detailed clinical observations were made prior to dosing and throughout the study, as needed.
78.646 mL of HPβCD (20% solution w/v) was then added with vortex and sonication.
Blood samples (˜0.3 mL) were collected according to a schedule (shown below) by venipuncture of peripheral veins except for the dosing vein, and EDTA-K2 was used as anticoagulant. Within 30 minutes of collection, the samples were centrifuged at approximately 2000× g for 10 minutes at 4° C. to obtain blood plasma. The plasma samples were immediately divided into two aliquots (˜75 μL each), transferred to a cryogenic vial, and stored in a freezer at −75±15° C. prior to analysis.
Blood samples were collected at 0.083, 0.25, 0.5, 1, 2, 4, 8, and 24 h following the initial dosing (0 h).
The experiments were conducted on a Shimadzu DGU-20A5R and AB API 5500+LC/MS/MS instrument with an Agilent Poroshell EC-C18 4 μm (50×2.1 mm) column. A gradient of 95% water (0.1% formic acid)/95% acetonitrile (0.1% formic acid) was used as the mobile phase. The sample injection volume was 1 μL, and the flow rate was 0.6 mL/min. The gathered data were used for pharmacokinetic calculations using T½, C0, AUClast, AUCinf, MRTinf, CI, Vss, and Number of Points for Regression as parameters.

hydroxyproline = assay: UUO model: kidney hydroxyproline by ELISA; format: in vivo, rat; details: UUO rats; 30 mg/kg; compared with sham and UUO + vehicle
Source text: Serum for blood biochemistry analysis was collected into centrifuge tubes without coagulant four hours after final dosing. Blood plasma samples from group 3 was collected into tubes with K2EDTA four hours after final dosing. At the conclusion of the study (end of the 14-day period), animals were euthanized. Kidney tissue was collected four hours after final dosing. Ligated side kidney was divided into three copies 1/3 fix into 10% formalin for H&E analysis, 1/3 into RNA for PCR analysis of tissue biomarkers Col1a1, TGF-b1, MCP-1, IL-1b, IL-6, IL-17, TNF-a, and Timp1, and 1/3 for hydroxyproline assay analyzed by ELISA. RNA was extracted from tissue using the RNeasy mini kit (Qiagen). RNA concentration was measured using a NanoDrop One Spectrophotometer (ThermoFisher) and converted to cDNA using a High-Capacity RNA-to-cDNA kit (Invitrogen). RT-PCR was performed to measure levels of mRNA of different targets using TaqMan® Gene Expression Master Mix and TaqMan® probe/primer sets on a QuantStudio 6 Real-Time PCR System (ThermoFisher). Fold change in target gene expression was determined using the ΔΔCt method.

[5] = day 0, 10 mg/kg, individual test subjects
[6] = day 20, 10 mg/kg, individual test subjects

C[C@@H]1C[C@H]2[C@@H]3CCC4=CC(=O)C=C[C@]4(C)[C@@]3(F)[C@@H](O)C[C@]2(C)[C@@]1(O)C(=O)CO [dexamethasone]
Rat Anti-Collagen IgG1 Antibody Con. ([1]; day 21 serum, reference group (Dexamethasone or GSK620), before fold 2000 correction, individual animals): 11.01 units/ml and 2.63 units/ml and 0.65 units/ml and 1.27 units/ml and 5.87 units/ml and 2.28 units/ml and 3.96 units/ml and 3.67 units/ml | Final Rat Anti-Collagen IgG1 Antibody Con. ([1]; day 21 serum, reference group (Dexamethasone or GSK620), individual animals): 22019.88 units/ml and 5250.27 units/ml and 1296.14 units/ml and 2541.14 units/ml and 4553.59 units/ml and 7925.50 units/ml and 7346.16 units/ml

CNC(=O)c1[nH]c(C(=O)NC2CCC2)cc1O[C@@H](C)c1ccccc1 [Example 101, N^5-cyclobutyl-N^2-methyl-3-(1-phenylethoxy)-1H-pyrrole-2,5-dicarboxamide]
AUClast/D [2, 5]: 820 kg·ng·h/mL/mg and 720 kg·ng·h/mL/mg | Plasma concentration at 0.25 h [2, 5]: 375 ng/mL and 378 ng/mL and 754 ng/mL | Plasma concentration at 24 h [2, 5]: 14.3 ng/mL and 35.6 ng/mL and 122 ng/mL | T1/2 [2, 5]: 2.13 h and 2.54 h and 5.01 h | Tmax [2, 5]: 10.0 h (2×) and 2.00 h | AUCInf, Mean ([2]; day 0, 10 mg/kg, mean): 15371 ng·h/mL | AUClast, Mean ([2]; day 0, 10 mg/kg, mean): 15019 ng·h/mL | AUClast/D, Mean ([2]; day 0, 10 mg/kg, mean): 751 kg·ng·h/mL/mg | AUC—% Extrap_obs, Mean ([2]; day 0, 10 mg/kg, mean): 2.29% | MRTInf_obs, Mean ([2]; day 0, 10 mg/kg, mean): 8.61 h | AUC—% Extrap_obs [2, 6]: 0.700% | Cmax [2, 6]: 1660 ng/mL | Plasma concentration at 8 h [2, 6]: 103 ng/mL and 215 ng/mL and 188 ng/mL | Plasma concentration at 24 h [2, 6]: 16.7 ng/mL and 20.1 ng/mL and 38.1 ng/mL | AUClast/D, Mean ([2]; day 20, 10 mg/kg, mean): 528 kg·ng·h/mL/mg | AUC—% Extrap_obs, Mean ([2]; day 20, 10 mg/kg, mean): 1.11% | Cmax, Mean ([2]; day 20, 10 mg/kg, mean): 1707 ng/mL | MRTInf_obs, Mean ([2]; day 20, 10 mg/kg, mean): 6.66 h | Plasma Stability (% remaining at 120 minutes) Rat [3]: 61% | levels of rat anti-collagen IgG1 antibodies relative to CIA without treatment ([1]; 1 mg/kg, p<0.05): significantly decreased | levels of rat anti-collagen IgG1 antibodies relative to CIA without treatment ([1]; 10 mg/kg, p<0.05): significantly decreased | levels of rat anti-collagen IgG1 antibodies relative to CIA without treatment ([1]; 30 mg/kg, p<0.01): significantly decreased | selectivity for BDII relative to GSK620 (BRD4 BD2): greater than about two orders of magnitude | AUClast/D, Mean ([4]; PK study 2, IV 1 mg/kg): 977 (ng · h/mL)/(mg/kg) | AUC—% Extrap_obs, Mean ([4]; PK study 2, IV 1 mg/kg): 0.689% | C0, Mean ([4]; PK study 2, IV 1 mg/kg): 1875 ng/mL | Cl_obs, Mean ([4]; PK study 2, IV 1 mg/kg): 18.3 mL/min/kg | Vssz_obs, Mean ([4]; PK study 2, IV 1 mg/kg): 0.864 L/kg | Average plasma concentration, Mean ([4]; PK study 2, IV 1 mg/kg, 24 h): BLOQ | Vssz_obs ([4]; PK study 2, IV 1 mg/kg, Test Animal 1): 0.838 L/kg | Vssz_obs ([4]; PK study 2, IV 1 mg/kg, Test Animal 2): 0.886 L/kg | Vssz_obs ([4]; PK study 2, IV 1 mg/kg, Test Animal 3): 0.868 L/kg | clinical observations after intravenous administration ([4]; beagle dogs, PK study 2, IV, 0.5 mg/mL in HPβCD (20% solution w/v)/DMSO (99/1)): soft feces | hydroxyproline levels (hydroxyproline): No significant differences
